This is an account of results in US7638554B2, “Flavanoids as chemotherapeutic, chemopreventive, and antiangiogenic agents” (SRI International, priority 2002, dated 2009).

In assay [1] the test system is MDA-MB-231 (ER−) breast cancer cell line. As to the kind of experiment: Growth inhibition assay, MTT, MDA-MB-231 breast cancer cells. The format is cell-based, human. The settings on record: eight days, average of at least two experiments. The protocol: (§1) Compounds of the invention were tested for their ability to inhibit growth in two breast cancer cell lines, MCF-7 (ER+) and MDA-MB-231 (ER−).
(§2) The growth inhibition assays were conducted using routine methods. Briefly, the cells were seeded in 24-well plates at a density of 2000 cells per well in 200 μL of […] growth medium. To each well was added 10 μL of DMSO containing the dissolved test compound; final DMSO concentration in each well was not more than 0.5%. Each test compound was assayed at concentrations of 0.4, 2, 10, and 50 μM. The plates were incubated for eight days, with the media and test solutions replaced every third day. On Day 8, the viable cells were measured by the MTT assay, as described in Mosmann et al. (1983), “Rapid Colorimetric Assay for Cellular Growth and Survival: Application to Proliferation and Cytotoxicity,” J. Immunol. Method. 65:55-63. The optical density at 575 nm of each test well was measured and compared to that for control wells, and the data used to calculate the percentage of growth inhibition at different concentrations. The IC50 value (the concentration of growth inhibitor that results in 50% growth inhibition of the cells in culture relative to control cells not exposed to any growth inhibitor) was determined by plotting dose-response curves.
(§3) The calculated IC50 values are set forth in Table 1, with the results representing the average of at least two experiments conducted for each compound at each of the four concentrations.

In assay [2] the test system is prostate cancer cell line LNCaP. Put plainly: Growth inhibition, sulforhodamine-based protein determination, LNCaP. The following applies: Homo sapiens, Table 5, read-out: Growth Inhibition (IC50), LNCaP cells. The format is cell-based. The protocol: The novel compound SR 13179 was assayed for its ability to inhibit growth in several cancer cell lines. The cell lines studied included breast cancer cell line MCF-7 (ER+); prostate cancer cell lines LNCaP, PC3, and DU145; lung cancer cell line A427; ovarian cancer cell lines IGROV1, OVCAR-3, OVCAR-4, OVCAR-5, OVCAR-8, and SK-OV-3; and colon cancer cell lines COLO 205, HCC-2998, HCT-116, HCT-15, HT29, KM12, AND SW-620.
The growth assays for the breast cancer cell lines were conducted according to the method of Example 16. For the other cell lines, each assay was conducted with continuous exposure to the test compound at four log concentrations for six days, using a sulforhodamine-based protein determination to measure growth inhibition.
The procedure of Example 20 was used to evaluate the growth inhibitory effect of various compounds of the invention on LNCaP cells.

The test system of assay [3] is MCF-7 (ER+) breast cancer cell line. Put plainly: Growth inhibition assay, MTT, MCF-7 breast cancer cells. The format is cell-based, human. The following applies: MTT assay, eight days, average of at least two experiments, read-out: GROWTH INHIBITION (IC50) MCF-7 (ER+). The protocol: as §1, §2, §3
In assay [4] the test system is chick chorioallantoic membrane (CAM) blood vessels. As to the kind of experiment: Chick chorioallantoic membrane (CAM) assay for antiangiogenic activity. The settings on record: 11.1 μg/CAM, once daily for 12-14 days. The class given is in vivo. The protocol: The CAM assay, which is widely applied to evaluate in vivo antiangiogenic activity, was utilized with SR 13179.
The methods used were those of Folkman (Auerbach et al. (1974) Dev. Biol. 41:391-394), with some modifications. The test compound was dissolved in saline and methylcellulose, and the embryos dosed once daily for 12-14 days. Blood vessel density of each embryo was measured as the quantitative endpoint. The known antiangiogenic compound medroxyprogesterone acetate (MPA) was used as a positive control.

[5] abbreviates: Homo sapiens, MDA-MB-231, 192 h.

Read-outs that look alike come from different tables or passages of the source.

As for `OC1CC(c2cc(OCc3ccccc3)c(OCc3ccccc3)c(OCc3ccccc3)c2)Oc2c1ccc1ccccc21` (centres unmarked) [SR 13191, 2-(3,4,5-TRIS-BENZYLOXY-PHENYL)-3,4-DIHYDRO-2H-BENZO[H]CHROMEN-4-OL], the IC50 in assay [1] (setting [5]) was more than 50 µM; in assay [2] it was 6.58 µM; in assay [3] (Homo sapiens, MCF7, 192 h), 19.9 µM.

For `COc1ccc(C2CC(=O)c3c(OC)cc(OC)cc3O2)cc1` (centres unmarked) [SR 13188, 5,7-DIMETHOXY-2-(4-METHOXY-PHENYL)-CHROMAN-4-ONE], the IC50 in assay [1] (setting [5]) was more than 50 µM; in assay [2] it was 3.34 µM; in assay [3] (Homo sapiens, MCF7, 192 h) it was more than 50 µM.

As to `O=C1CC(c2cc(OCc3ccccc3)c(OCc3ccccc3)c(OCc3ccccc3)c2)Oc2cc(OCc3ccccc3)cc(OCc3ccccc3)c21` (centres unmarked) [SR 13180, 5,7-BIS-BENZYLOXY-2-(3,4,5-TRIS-BENZYLOXY-PHENYL)-CHROMAN-4-ONE], the IC50 was more than 50 µM in assay [1] (setting [5]) and more than 50 µM in assay [3] (Homo sapiens, MCF7, 192 h).

Turning to `COc1cc(C2CC(=O)c3c(ccc4ccccc34)O2)cc(OC)c1OC` (centres unmarked) [SR 13181, 3′,4′,5′-TRIMETHOXY-B-NAPHTHAFLAVAN-4-ONE], the IC50 in assay [1] and in assay [3] was more than 100 µM in each case.

As to `COc1cc(C2CC(O)c3c(ccc4ccccc34)O2)cc(OC)c1OC` (centres unmarked) [SR 13187, 3-(3,4,5-TRIMETHOXYPHENYL)-2,3-DIHYDRO-1H-BENZO[F]CHROMEN-1-OL], the IC50 in assay [2] stood at 17.7 µM; in assay [3] (Homo sapiens, MCF7, 192 h), 6.29 µM.

In the case of `O=C(C=Cc1cc(OCc2ccccc2)c(OCc2ccccc2)c(OCc2ccccc2)c1)c1c(O)cc(OCc2ccccc2)cc1OCc1ccccc1` [SR 13178, 1-(2,4-Bis-benzyloxy-6-hydroxyphenyl)-3-(3,4,5-tris-benzyloxy-phenyl)-propenone], the figures for the IC50 in assay [1] and in assay [3] were more than 100 µM and 53 µM, respectively.

In the case of `O=C(/C=C/c1cc(OCc2ccccc2)c(OCc2ccccc2)c(OCc2ccccc2)c1)c1ccc2ccccc2c1O` [SR 13185, 1-(1-HYDROXY-NAPHTHALEN-2-YL)-3-(3,4,5-TRIS-BENZYLOXY-PHENYL)-PROPENONE], the IC50 was determined as 0.562 µM in assay [1] (setting [5]) and 5.08 µM in assay [3] (Homo sapiens, MCF7, 192 h).

As for `COc1cc(C2CC(=O)c3ccc4ccccc4c3O2)cc(OC)c1OC` (centres unmarked) [SR 13177, 2-(3,4,5-TRIMETHOXYPHENYL)-2,3-DIHYDRO-BENZO[H]CHROMEN-4-ONE], the IC50 in assay [2] was found to be 2.52 µM; in assay [3] (Homo sapiens, MCF7, 192 h), 4.65 µM.

In the case of `COc1cc(/C=C/C(=O)c2ccc3ccccc3c2O)cc(OC)c1OC` [SR 13176, 1-(1-Hydroxy-naphthalen-2-yl)-3-(3,4,5-trimethoxyphenyl)-propenone], the IC50 was 39 µM in assay [1] (setting [5]) and more than 50 µM in assay [3] (Homo sapiens, MCF7, 192 h).

Turning to `CC(=O)O[C@]1(C(C)=O)CC[C@H]2[C@@H]3C[C@H](C)C4=CC(=O)CC[C@]4(C)[C@H]3CC[C@@]21C` [MPA, medroxyprogesterone acetate, reference compound], in assay [4], the “Blood vessel density score” value was determined as 4.5 ± 2.3 and the “Percent inhibition relative to control” value amounted to 58%.

For `OC1CC(c2cc(OCc3ccccc3)c(OCc3ccccc3)c(OCc3ccccc3)c2)Oc2cc(OCc3ccccc3)cc(OCc3ccccc3)c21` (centres unmarked) [SR 13183, 5,7-BIS-BENZYLOXY-2-(3,4,5-TRIS-BENZYLOXY-PHENYL)-CHROMAN-4-OL], the IC50 in assay [1] (setting [5]) was 13.6 µM; in assay [3] (Homo sapiens, MCF7, 192 h), more than 100 µM.

For the molecule `O=C1CC(c2cc(OCc3ccccc3)c(OCc3ccccc3)c(OCc3ccccc3)c2)Oc2c1ccc1ccccc21` (centres unmarked) [SR 13186, 2-(3,4,5-TRIS-BENZYLOXY-PHENYL)-2,3-DIHYDRO-BENZO[H]CHROMEN-4-ONE], the IC50 is 9.84 µM in assay [1] (setting [5]) and 7.32 µM in assay [3] (Homo sapiens, MCF7, 192 h).

Regarding `COc1cc([C@@H]2CC(O)c3cc4c(cc3O2)CCCC4)cc(OC)c1OC` (some centres unmarked) [SR 13817, 5-(4-hydroxy-3,4,6,7,8,9-hexahydro-2H-benzo[g]chromen-2-yl)benzene-1,2,3-trimethoxy], the IC50 came to 1.51 µM in assay [1] and 0.56 µM in assay [3].

Turning to `COc1ccc(C2CC(O)c3c(OC)cc(OC)cc3O2)cc1` (centres unmarked) [SR 13189, 5,7-DIMETHOXY-2-(4-METHOXY-PHENYL)-CHROMAN-4-OL], the IC50 in assay [1] (setting [5]) is more than 50 µM; in assay [3] (Homo sapiens, MCF7, 192 h), more than 50 µM.

In the case of “3-(3,4,5-Trimethoxyphenyl)-2,3-dihydro-benzo[F]chromen-1-one [SR 13182]”, the IC50 in assay [1] and in assay [3] was more than 50 µM throughout.
